No end group written: not given here. mPEG 5000 = methoxy-PEG, average 5000 Da, coupled via mPEG-NHS
Experiments:
[1] = test system: Heparinized Porcine spleen biopsy punch model; assay: Heparinized porcine spleen biopsy punch model, time to hemostasis; format: in vivo; details: mixture with Surgiflo; for hemostatic effect in heparinized blood: 2 mL of 5 mM in saline (thrombin: EVITHROM), ACT above 300 seconds
Source text: The model was Heparinized Porcine spleen biopsy punch model: 6 mm wide×3 mm deep, tamponade time: 30 sec; observation time: 30 sec; activated clotting time (ACT) was maintained above 300 seconds by infusing additional 2000 IU heparin solution if needed. 9975 IU of heparin solution was initially applied to a 39.1 Kg porcine.

[2] = test system: porcine spleen biopsy punch model; assay: porcine spleen biopsy punch model, time to hemostasis; format: in vivo; details: for hemostatic performance vs Surgiflo with normal saline: ORC powder scaffold, FIG. 5, N=4; for time to hemostasis vs Surgiflo with saline and with PEG2000 (5 mM): FIG. 3, N=3; for hemostatic efficacy vs Surgiflo with thrombin: 0.05-5 mM; for hemostatic efficacy (time to hemostasis): pegylated (PEG2000) 8 amino acid peptides in mixture with Surgiflo, FIG. 5; for time to hemostasis vs thrombin: FIG. 2, N=3
Description: The data was collected using in vivo porcine spleen biopsy punch model [6 mm wide×3 mm deep], initial tamponade time: 30 s; observation time: 30 s; N=3.
In vivo hemostatic activity study was performed using the porcine spleen biopsy punch model, with the punched wound opening 6 mm wide×3 mm deep made on the spleen and the test article applied to a freshly created wound site followed by an occlusive digital pressure (tamponade). Pressure was initially applied for 30 second and was timed using an electronic timer. Following the 30 seconds tamponade, digital pressure was discontinued; the gauze pad on the article was immediately removed. A 30-second hemostasis evaluation period was performed. If free flow bleeding was not observed within 30 seconds, the time to hemostasis was noted, in a minutes seconds format, and testing was concluded for that article. If free flow bleeding was observed, pressure and gauze were reapplied for additional 30 seconds tamponade and observation periods until hemostasis was achieved or until the testing period reached ten minutes. Hemostasis was determined by the cessation of free flow bleeding in less than ten minutes. Gauze pad was used as a negative control.
The data was collected using porcine spleen biopsy punch model [6 mm wide×3 mm deep], initial tamponade time: 30 s; observation time: 30 s; N=3.
The data was collected using porcine spleen biopsy punch model [6 mm wide×3 mm […]], initial tamponade time: 30 s; observation time: 30 s; N=3.
The inventors have tested the following ORC-based compositions: • mixtures of ORC with pegylated SEQ ID NO: 1 at 5 mM concentration (designated on the chart as ORC/PEG2000-RK-8) • mixtures of ORC with SEQ ID NO: 1 at 5 mM concentration (designated on the chart as ORC/RK-8) • mixtures of ORC with normal saline The data was collected using porcine spleen biopsy punch model [6 mm wide×3 mm […]], initial tamponade time: 30 s; observation time: 30 s; N=4.
The data was collected using porcine spleen biopsy punch model [6 mm wide×3 mm deep], initial tamponade time: 30 s; observation time: 30 s.

[3] = test system: porcine blood containing sodium citrate; assay: bench top test: solution added to citrated porcine blood in glass vials; details: 100 μL of 0.5 mM solution added to 100 μL citrated porcine blood; for precipitation of blood: after 2 hrs
Description: In a bench top experiment, pegylated SEQ ID NO: 1 in normal saline solution, non-pegylated SEQ ID NO: 1 in normal saline solution, and control solution of normal saline were tested to evaluate interaction with blood. Samples were prepared by adding 100 μL of pegylated SEQ ID NO: 1 in normal saline solution (0.5 mM), SEQ ID NO: 1 in normal saline solution (0.5 mM), and normal saline to separate glass vials containing 100 μL of porcine blood containing sodium citrate (0.105M). […] Thus the pegylated SEQ ID NO: 1 and non-pegylated SEQ ID NO: 1 was shown as promoting rapid blood coagulation.

washed human platelets = washed human platelets from different donors; cited from earlier work
[4] = test system: clopidogrel and acetylsalicylic acid treated porcine spleen biopsy punch model; assay: clopidogrel and acetylsalicylic acid treated porcine spleen biopsy punch model (platelet inactivated); format: in vivo; details: mixture with Surgiflo, 0.5 mM PEG2000-RK8 in saline, FIG. 8
Description: The data was collected using a clopidogrel and acetylsalicylic acid treated porcine spleen biopsy punch model (6 mm wide×3 mm deep, tamponade time: 30 sec; observation time: 30 sec; the following oral dosages were applied to a 4-month-old female porcine (weight: 66.1 Kg): • 2 days prior to the lab: 300 mg of Plavix and 325 mg of aspirin. • 1 day prior to the lab: 75 mg of Plavix and 325 mg of aspirin. • The day for the lab: 75 mg of Plavix and 325 mg of aspirin before the surgery.

fresh porcine blood = assay: bench top test: treated Monocryl pad with fresh porcine blood; details: 100 μL of 0.5 mM on 0.025 g Monocryl pad, 150 μL fresh porcine blood, 2 minutes, room temperature
Description: In a bench top experiment, a synthetic porous pad was treated with pegylated SEQ ID NO: 1 in saline solution or with control solution of saline to evaluate interaction with blood. Samples were prepared by adding 100 μL of pegylated SEQ ID NO: 1 in normal saline solution (0.5 mM) or 200 μL of normal saline solution to 0.025 g Monocryl (poliglecaprone 25) pad. The impregnated Monocryl* (poliglecaprone 25) pads were then air-dried for 2 hrs following by an 1-hr vacuum drying process.
150 μL of fresh porcine blood was then added to each pad separately, and allowed it sit at room temperature for 2 minutes. The pads were then transferred to a Petri dish containing 20 mL of saline solution, observing non-coagulated blood diffusing out from the pads. […] Thus the pegylated SEQ ID NO: 1 was shown as promoting rapid blood coagulation.

[5] = mixture with Surgiflo, 5 mM, FIG. 6
[6] = mixture with Surgiflo, FIG. 4, N=3

Substance: Arg-Phe-Tyr-Val-Val-Met-Trp-Lys (RFYVVMWK) [SEQ ID NO: 1]
- hemostatic effect in heparinized blood ([1]; FIG. 7): failed as hemostat in heparinized blood
- hemostatic performance vs Surgiflo with normal saline ([2]; 5 mM): not suitable
- time to hemostasis vs Surgiflo with saline and with PEG2000 (5 mM) ([2]; mixture with Surgiflo, 5 mM): much faster time to hemostasis
- effectiveness as hemostatic agent (time to hemostasis) [2, 5]: performed as well as thrombin
- hemostatic efficacy vs Surgiflo with thrombin [2, 6]: hemostatic efficacy comparable to mixtures of Surgiflo™ with thrombin
- clouding of blood [3]: instantly observed
- precipitation of blood [3]: complete precipitation of blood
- concentrations that induce activation and aggregation of platelets (washed human platelets): 5 to 25 mM

Substance: PEG5000-SEQ ID NO: 1: SEQ ID NO: 1 with mPEG 5000 conjugated onto the N-terminus via mPEG-NHS ({mPEG 5000}-RFYVVMWK)
- hemostatic efficacy vs thrombin, non-pegylated SEQ ID NO: 1 and other controls ([1]; heparinized blood, 5 mM): superior hemostatic efficacy
- hemostatic effect in heparinized blood ([1]; FIG. 7): significant hemostatic efficacy

Substance: SEQ ID NO: 7: PEG2000-conjugated peptide KYFLLQFR (Lys-Tyr-Phe-Leu-Leu-Gln-Phe-Arg) (PEG2000-KYFLLQFR)
- hemostatic efficacy (time to hemostasis) ([2]; 5 mM): somewhat longer time to hemostasis, comparable to non-pegylated SEQ ID NO: 1

Substance: SEQ ID NO: 21: PEG2000-conjugated random sequence 8 amino acid peptide KVYRWFMV (PEG2000-KVYRWFMV) [reference compound]
- hemostatic efficacy (time to hemostasis) ([2]; 5 mM): longer time to hemostasis, comparable to SF/saline mixture

Substance: pegylated SEQ ID NO: 1: SEQ ID NO: 1 with mPEG (average 2000 Da) conjugated onto the N-terminus via mPEG-NHS ({mPEG 2000 Da}-RFYVVMWK)
- hemostatic effect in heparinized blood ([1]; FIG. 7): some hemostatic effect
- time to hemostasis ([1]; 2 mL of 5 mM in saline, heparinized blood, FIG. 7): 6.8 min
- hemostatic efficacy vs Surgiflo/Thrombin [4]: working as well as Surgiflo/Thrombin
- hemostatic performance vs Surgiflo with normal saline ([2]; 5 mM): not suitable
- hemostatic testing ([2]; Pluronic acid F127 scaffold, 5 mM, FIG. 6): failed in hemostatic testing
- time to hemostasis vs thrombin ([2]; mixture with Surgiflo, 0.05 mM to 5 mM): comparable to thrombin
- time to hemostasis ([2]; mixture with Surgiflo, 0.05 mM, FIG. 4, N=3): particularly fast time to hemostasis
- time to hemostasis vs thrombin ([2]; mixture with Surgiflo, 0.1 mM): possibly better time to hemostasis than Thrombin
- time to hemostasis vs Surgiflo with saline and with PEG2000 (5 mM) ([2]; mixture with Surgiflo, 5 mM): much faster time to hemostasis
- effectiveness as hemostatic agent (time to hemostasis) [2, 5]: performed as well as thrombin
- hemostatic efficacy vs Surgiflo with thrombin [2, 6]: better or similar hemostatic efficacy
- hemostatic efficacy vs SEQ ID NO: 1 and Thrombin ([2]; mixtures with Surgiflo, FIG. 4, further analysis): better hemostatic efficacy than SEQ ID NO: 1 and Thrombin
- coagulated blood trapped in treated pad (fresh porcine blood): significant amount of coagulated blood
- clouding of blood [3]: instantly observed
- precipitation of blood [3]: complete precipitation of blood

Substance: thrombin
- hemostatic effect in heparinized blood ([1]; FIG. 7): failed as hemostat in heparinized blood

Source: patent publication US9717820B2, “Procoagulant peptides and their derivatives and uses therefor” (Ethicon, Inc., priority 2011, dated 2017)
